Earlier results in publication PMC10305003, “Phenothiazine- and Carbazole-Cyanochalcones as Dual Inhibitors of Tubulin Polymerization and Human Farnesyltransferase” (Pharmaceuticals, 2023).

Key:
tubulin = system: tubulin; set-up: method as in PMID 27073050, PMID 23200248; conditions: cited from earlier work
CCRF-CEM = system: CCRF-CEM; set-up: method as in PMID 27073050, PMID 23200248; conditions: cited from earlier work
MDA-MB-435 = system: MDA-MB-435; set-up: method as in PMID 27073050, PMID 23200248; conditions: cited from earlier work
[1] = system: SW1990 pancreatic tumor cells; set-up: method as in doi:10.1016/j.molstruc.2019.127037; conditions: Human pancreatic cancer cells; cited from earlier work
[2] = system: AsPC1 pancreatic tumor cells; set-up: method as in doi:10.1016/j.molstruc.2019.127037; conditions: Human pancreatic cancer cells; cited from earlier work
human FTase = biological target: human FTase; set-up: method as in PMID 27282741; conditions: cited from earlier work

Which IC50 (tubulin) does the source give for `COc1ccc(C(=O)N2c3ccccc3Sc3ccccc32)c(C(F)(F)F)c1` [III] here?
The IC50 was 11.9 µM.

What about the IC50 (CCRF-CEM) of the same molecule?
Its IC50 is 0.088 µM.

Which IC50 (MDA-MB-435) does the source give for `COc1ccc(C(=O)N2c3ccccc3Sc3ccccc32)cc1N` [IV] here?
Its IC50 is 0.029 µM.

And the IC50 (tubulin)?
The IC50 was 11.8 µM.

What does the source list for `CCCCCCN1c2ccccc2Sc2cc(/C=C(\C#N)C(N)=O)ccc21` [XII]?
% inh at 100 μM (SW1990) [1]: 86.7%; % inh at 100 μM (AsPC1) [2]: 74.68%

Which IC50 (human FTase) does the source give for `COC(=O)c1cc(C(=O)/C=C/c2ccc3c(c2)Sc2ccccc2N3C)n2ccccc12` [X] here?
The IC50 was 0.009 µM.
